Activity calls are given as the source filed them.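 The calls were made as follows: active = compounds giving half or more protection of infected cells from virus-caused growth loss, again on retest; inactive = the rest.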
System: CEM cells HIV-1 protection, formazan growth assay
Assay: NCI AIDS Antiviral Assay
Details: for IC50: measured here: growth of uninfected CEM cells
How it was run: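 Protection of CEM cells against HIV-1 measured as cell growth via soluble formazan read-out, with five concentrations tested on both infected and uninfected cells; failure to protect may reflect toxicity.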

SMILES	EC50	IC50	outcome
N.N.N.N.O=S(=O)([O-])[O-].[Co+3].[OH3+].[OH3+]	> 39.8 µM	38.9 µM	–
COC(=O)C1[C@H](C(=O)OC)C1(Br)CBr (stereo partly drawn)	> 200 µM	97.7 µM	–
N#CSCc1ccc(Cl)cc1	> 28.2 µM	16.2 µM	–
S=c1nc(/C=C/c2ccc(Cl)c(Cl)c2)[nH][nH]1	> 36.3 µM	> 36.3 µM	–
CCCCN(C(=O)NCCC)S(=O)(=O)c1ccc(Cl)cc1	–	–	inactive
CC1C[C@@]23C4CCCN2CC2OC2[C@@]13C1CC4OC1=O (stereo partly drawn)	> 182 µM	> 182 µM	–
O=S1(=O)C(c2cccc(F)c2)=C(O)c2cc3ccccc3nc21	–	–	inactive
O=C(NC(CSC(c1ccccc1)c1ccccc1)C(=O)Oc1ccc([N+](=O)[O-])cc1)OCc1ccccc1 (stereo not drawn)	> 200 µM	85.1 µM	–
Cc1ccc(C)c(NC(=O)/C(=N\NC(N)=S)C(C#N)c2ccccc2)c1 (stereo not drawn)	> 19.5 µM	> 19.5 µM	–
O=C1OCc2c1cc1ccc(O)c(OC3OC(CO)C(O)C(O)C3O)c1c2-c1ccc2c(c1)OCO2 (stereo not drawn)	> 501 µM	> 501 µM	–
Cc1ccc(Cc2c(=O)[nH]nc3ccccc23)cc1	> 39.8 µM	> 39.8 µM	–
CCSC(=O)n1nc(Cl)c2cc([N+](=O)[O-])ccc21	> 200 µM	> 200 µM	–
CC(C)OC(=O)c1ccc(CCC2=CC(=O)C(Br)=CC2=O)cc1	> 200 µM	8.71 µM	–
C[CH2][Pb]([CH2]C)([CH2]C)[O]C(=O)COc1ccc(Cl)cc1Cl	> 2 µM	0.575 µM	–
CCOC(=O)c1ncoc1[C@H]1COC(C)(C)O1	–	–	inactive
CC1CN(Cc2ccccc2)C(=N)S1 (stereo not drawn)	> 363 µM	288 µM	–
COC(=O)c1c2c(cc3c1CC1(Cc4cc5c(cc4C1)CCCC5)C3)CCCC2	> 200 µM	> 200 µM	–
O=[N+]([O-])/C(C(Cl)=C(Cl)Cl)=C(/Nc1ccccc1)SCc1ccccc1	> 200 µM	38 µM	–
CC(Oc1ccc(Oc2cnc3ccc(Cl)cc3n2)cc1)C(=O)O (stereo not drawn)	> 141 µM	17.4 µM	–
O=C(O)Cc1cccc(=O)c(O)c1C(=O)O	> 200 µM	129 µM	–
CCCN1CCC=C([Si](C)(C)C)C1	–	–	inactive
Cc1nc(C(=O)O)c(C(=O)O)[nH]1	> 200 µM	> 200 µM	–
Cn1c(=O)c2c(nc(N/N=c3/scc(-c4ccccc4)n3Cc3ccccc3)n2C)n(C)c1=O	> 200 µM	12.3 µM	–

SMILES	EC50	IC50	outcome
COc1ccc(-c2cc(NC(=O)c3cnccn3)c(=O)oc2C)cc1	> 200 µM	170 µM	–
N=c1ccc2nc(N)nn(O)c-2c1	> 200 µM	> 200 µM	–
c1cncc(-c2ncc3cccnc3n2)c1	> 100 µM	> 100 µM	–
NC(=O)N(O)c1cccc(Br)c1	> 200 µM	145 µM	–
Nc1nc(NC2C3CC4CC(C3)CC2C4)nc(-c2n[nH]c(=S)o2)n1 (stereo not drawn)	> 55 µM	28.2 µM	–
C=C1CN(S(=O)(=O)c2ccc(C)cc2)CCCN(Cc2cccn2C)CCCN(S(=O)(=O)c2ccc(C)cc2)C1	> 200 µM	38.9 µM	–
Cc1cc(N(CCC#N)CCC#N)ccc1/C(N=Nc1cccc([N+](=O)[O-])c1)=N/NC(=O)c1cc(Cl)ccc1O	> 200 µM	12 µM	–
O=[N+]([O-])c1cccc[c]1[Sb](=[O])([OH])[c]1ccccc1[N+](=O)[O-]	> 200 µM	25.1 µM	–
N#CC=Cc1ccc([N+](=O)[O-])s1 (mixture of isomers)	> 2 µM	0.166 µM	–
O=[N+]([O-])c1cccc2c(Nc3ccc(S(=O)(=O)Nc4nccs4)cc3)c3ccccc3nc12	> 200 µM	21.9 µM	–
CC1C2C1C1C3NN=CC3C2n2c(=O)n(-c3ccccc3)c(=O)n21 (stereo not drawn)	> 200 µM	> 200 µM	–
CCSSc1ccccc1C(=O)NC(CC)CO (stereo not drawn)	> 200 µM	5.01 µM	–
OC(Cc1cccc2ccccc12)CN1CCC(c2ccccc2)CC1 (stereo not drawn)	> 93.3 µM	28.8 µM	–
C1CN(SSN2CCSCC2)CCS1	> 5.37 µM	> 5.37 µM	–
O=[N+]([O-])c1ccc(SSc2ccc([N+](=O)[O-])cn2)nc1	> 200 µM	9.12 µM	–
c1ccc2sc(SCN3CCN(CSc4nc5ccccc5s4)CC3)nc2c1	> 1.62 µM	> 1.62 µM	–
COC(=O)/C(=N\Nc1nnc(C)n1N)C(C#N)c1ccccc1 (stereo not drawn)	> 575 µM	93.3 µM	–
CNc1ccccc1S(=O)(=O)c1ccccc1C(F)(F)F	> 200 µM	17 µM	–
Cc1cc(C)nc(SC(F)(F)c2nc3ccccc3o2)n1	–	–	active
O=C(NC/C=C/Br)Nc1cnc2ccccc2c1	> 200 µM	151 µM	–
C/C=C(\C)C(=O)c1c(OCC)cc(OCC)c2c(CCC)cc(=O)oc12	> 126 µM	1.91 µM	–
COC1C(OC(=O)c2ccc(C)[nH]2)C(O)C(Oc2ccc3c(O)c(NC(=O)c4ccc(O)c(CC=C(C)C)c4)c(=O)oc3c2Cl)OC1(C)C (stereo not drawn)	> 200 µM	15.8 µM	–
O=C(O)C1C(C(=O)O)N2C(c3ccccc3)C(C(=O)O)C(C(=O)O)N2C1c1ccccc1 (stereo not drawn)	> 214 µM	> 214 µM	–

SMILES	EC50	IC50	outcome
OC1C2CCCC1C1(CCCCC1)C1CCCCC21O (stereo not drawn)	–	–	inactive
O=C(O)c1ccc(Nc2nc3ccccc3nc2-c2cccs2)cc1	> 200 µM	60.3 µM	–
O=C1C(=O)N(C(=O)c2ccc(Cl)c(Cl)c2)c2ccc(Cl)cc21	–	–	inactive
C=CCSCCOCn1cc(C)c(=O)[nH]c1=O	> 200 µM	> 200 µM	–
Cc1nc2cc(Nc3ccccc3C(=O)O)ccc2s1	> 631 µM	158 µM	–
CO[C@H](C(=O)O[C@H]1C(=O)N2CC[C@@H]3CCC[C@H]1C32C)c1ccccc1 (stereo partly drawn)	> 724 µM	437 µM	–
Nc1ccc2c(c1)C(=O)OC2(C(F)(F)F)C(F)(F)F	> 200 µM	93.3 µM	–
CC1=C(C(=O)Nc2ccccc2)C(c2ccc3c(c2)OCO3)C(C(=O)Nc2ccccc2)=C(C)N1	> 11.2 µM	> 11.2 µM	–
CC1=NOC2(C1)C(=O)Nc1ccccc12 (stereo not drawn)	> 200 µM	141 µM	–
O=C(O)c1ccc2c(c1)C(=O)c1ccccc1C2=O	> 200 µM	97.7 µM	–
C=CCc1cc(OC)c2c(c1)C(OC(C)=O)CC(c1ccc(OC)c(OC)c1)O2 (stereo not drawn)	> 46.8 µM	> 46.8 µM	–
Cc1ccc2nc(NC(=O)C(=O)C(C#N)c3nc4ccccc4s3)sc2c1 (stereo not drawn)	> 66.1 µM	> 66.1 µM	–
O=C(O)CNS(=O)(=O)c1ccc(NCc2ccccc2)cc1	–	–	inactive
O=C1OCc2cc3cc4c(cc3c(-c3ccc5c(c3)OCO5)c21)OCO4 (tested in a mixture with another compound)	–	–	inactive
CCOC(=O)C1(C/C=C/CCl)CCCC1=O (stereo not drawn)	> 200 µM	10 µM	–
O=C1CC(Cc2n[nH]c3c2CCCC3)CC(=O)N1	> 200 µM	> 200 µM	–
COc1cc2c([C@@H](OC(=O)c3ccccc3)c3ccc4c(c3)OCO4)nccc2c(OC)c1OC	–	–	inactive
Cc1ccc(SC23C=CC(CC24CCOC4=O)OC3=O)cc1 (stereo not drawn)	> 200 µM	> 200 µM	–
CCOC(=O)c1nc2ccccc2nc1Nc1ccc(Cl)c(Cl)c1	151 µM	> 200 µM	–
O=C(/C=C/c1ccc(O)c(O)c1)OCCCc1ccccc1	> 200 µM	5.01 µM	–
C=C1CC[C@@](C)(c2ccc(CO)cc2)C1C (stereo partly drawn)	–	–	inactive
